Experimental data reported in paper PMC4844702, “Selective inhibition of the kinase DYRK1A by targeting its folding process” (Nature Communications, 2016).

Columns and labels:
Test in all cases: Kinase panel (Carna)
Format in all cases: biochemical
[1] = biological target: T1, ARG (Homo sapiens, UniProt P42684)
T1 construct: purchased Carna Biosciences
Source text: (§1) Detailed information on the assay conditions is available on the website of Carna Biosciences (http://www.carnabio.com).

[2] = biological target: T2, BTK (Homo sapiens, UniProt Q06187)
T2 construct: purchased Carna Biosciences
Source text: as §1

[3] = biological target: T3, CSK (Homo sapiens, UniProt P41240)
T3 construct: purchased Carna Biosciences
Source text: as §1

[4] = biological target: T4, FAK (Homo sapiens, UniProt Q05397)
T4 construct: purchased Carna Biosciences
Source text: as §1

[5] = biological target: T5, FES (Homo sapiens, UniProt P07332)
T5 construct: purchased Carna Biosciences
Source text: as §1

[6] = biological target: T6, FGFR3 (Homo sapiens, UniProt P22607)
T6 construct: purchased Carna Biosciences

[7] = biological target: T7, FLT1 (Homo sapiens, UniProt P17948)
T7 construct: purchased Carna Biosciences
Source text: as §1

[8] = biological target: T8, FYN (Homo sapiens, UniProt P06241)
T8 construct: purchased Carna Biosciences
Source text: as §1

[9] = biological target: T9, HER2 (Homo sapiens, UniProt P04626)
T9 construct: purchased Carna Biosciences
Source text: as §1

[10] = biological target: T10, LTK (Homo sapiens, UniProt P29376)
T10 construct: purchased Carna Biosciences
Source text: as §1

[11] = biological target: T11, LYNa (Homo sapiens, UniProt P07948)
T11 construct: purchased Carna Biosciences
Source text: as §1

[12] = biological target: T12, PYK2 (Homo sapiens, UniProt Q14289)
T12 construct: purchased Carna Biosciences
Source text: as §1

[13] = biological target: T13, SRM (Homo sapiens, UniProt Q9H3Y6)
T13 construct: purchased Carna Biosciences
Source text: as §1

[14] = biological target: T14, TNK1 (Homo sapiens, UniProt Q13470)
T14 construct: purchased Carna Biosciences
Source text: as §1

[15] = biological target: T15, AKT2 (Homo sapiens, UniProt P31751)
T15 construct: purchased Carna Biosciences
Source text: as §1

[16] = biological target: T16, AKT3 (Homo sapiens, UniProt Q9Y243)
T16 construct: purchased Carna Biosciences
Source text: as §1

[17] = biological target: T17, AurA (Homo sapiens, UniProt O14965)
T17 construct: purchased Carna Biosciences
Source text: as §1

[18] = biological target: T18, AurB (Homo sapiens, UniProt Q96GD4)
T18 construct: purchased Carna Biosciences
Source text: as §1

[19] = biological target: T19, CaMK2δ (Homo sapiens, UniProt Q13557)
T19 construct: purchased Carna Biosciences

[20] = biological target: T20, CHK2 (Homo sapiens, UniProt O96017)
T20 construct: purchased Carna Biosciences

[21] = biological target: T21, CK1γ1 (Homo sapiens, UniProt Q9HCP0)
T21 construct: purchased Carna Biosciences

[22] = biological target: T22, CK1γ3 (Homo sapiens, UniProt Q9Y6M4)
T22 construct: purchased Carna Biosciences

[23] = biological target: T23, DAPK1 (Homo sapiens, UniProt P53355)
T23 construct: purchased Carna Biosciences
Source text: as §1

[24] = biological target: T24, GSK3α (Homo sapiens, UniProt P49840)
T24 construct: purchased Carna Biosciences

[25] = biological target: T25, MAP2K6_Cascade (Homo sapiens, UniProt P52564)
T25 construct: purchased Carna Biosciences

[26] = biological target: T26, MAP2K7_Cascade (Homo sapiens, UniProt O14733)
T26 construct: purchased Carna Biosciences
Source text: as §1

[27] = biological target: T27, MAP3K3_Cascade (Homo sapiens, UniProt Q99759)
T27 construct: purchased Carna Biosciences
Source text: as §1

[28] = biological target: T28, MARK1 (Homo sapiens, UniProt Q9P0L2)
T28 construct: purchased Carna Biosciences
Source text: as §1

[29] = biological target: T29, MINK (Homo sapiens, UniProt Q8N4C8)
T29 construct: purchased Carna Biosciences
Source text: as §1

[30] = biological target: T30, MLK1_Cascade (Homo sapiens, UniProt P80192)
T30 construct: purchased Carna Biosciences
Source text: as §1

[31] = biological target: T31, MLK2_Cascade (Homo sapiens, UniProt Q02779)
T31 construct: purchased Carna Biosciences
Source text: as §1

[32] = biological target: T32, NDR1 (Homo sapiens, UniProt Q15208)
T32 construct: purchased Carna Biosciences
Source text: as §1

[33] = biological target: T33, NEK2 (Homo sapiens, UniProt P51955)
T33 construct: purchased Carna Biosciences

[34] = biological target: T34, p38α (Homo sapiens, UniProt Q16539)
T34 construct: purchased Carna Biosciences
Source text: as §1

[35] = biological target: T35, p38γ (Homo sapiens, UniProt P53778)
T35 construct: purchased Carna Biosciences
Source text: as §1

[36] = biological target: T36, PASK (Homo sapiens, UniProt Q96RG2)
T36 construct: purchased Carna Biosciences
Source text: as §1

[37] = biological target: T37, PEK (Homo sapiens, UniProt Q9NZJ5)
T37 construct: purchased Carna Biosciences
Source text: as §1

[38] = biological target: T38, PGK (Homo sapiens, UniProt Q13976)
T38 construct: purchased Carna Biosciences
Source text: as §1

[39] = biological target: T39, PIM3 (Homo sapiens, UniProt Q86V86); conditions: 10 µM FINDY
T39 construct: purchased Carna Biosciences

[40] = biological target: T40, TSSK3 (Homo sapiens, UniProt Q96PN8)
T40 construct: purchased Carna Biosciences
Source text: as §1

[41] = biological target: T41, PKD1 (Homo sapiens, UniProt Q15139)
T41 construct: purchased Carna Biosciences
Source text: as §1

[42] = biological target: T42, RSK2 (Homo sapiens, UniProt P51812)
T42 construct: purchased Carna Biosciences

[43] = biological target: T43, TBK1 (Homo sapiens, UniProt Q9UHD2)
T43 construct: purchased Carna Biosciences
Source text: as §1

[44] = biological target: T44, TSSK1 (Homo sapiens, UniProt Q9BXA7)
T44 construct: purchased Carna Biosciences
Source text: as §1

[45] = biological target: T45, TSSK2 (Homo sapiens, UniProt Q96PF2)
T45 construct: purchased Carna Biosciences
Source text: as §1

T19 sequence (Q13557 whole entry): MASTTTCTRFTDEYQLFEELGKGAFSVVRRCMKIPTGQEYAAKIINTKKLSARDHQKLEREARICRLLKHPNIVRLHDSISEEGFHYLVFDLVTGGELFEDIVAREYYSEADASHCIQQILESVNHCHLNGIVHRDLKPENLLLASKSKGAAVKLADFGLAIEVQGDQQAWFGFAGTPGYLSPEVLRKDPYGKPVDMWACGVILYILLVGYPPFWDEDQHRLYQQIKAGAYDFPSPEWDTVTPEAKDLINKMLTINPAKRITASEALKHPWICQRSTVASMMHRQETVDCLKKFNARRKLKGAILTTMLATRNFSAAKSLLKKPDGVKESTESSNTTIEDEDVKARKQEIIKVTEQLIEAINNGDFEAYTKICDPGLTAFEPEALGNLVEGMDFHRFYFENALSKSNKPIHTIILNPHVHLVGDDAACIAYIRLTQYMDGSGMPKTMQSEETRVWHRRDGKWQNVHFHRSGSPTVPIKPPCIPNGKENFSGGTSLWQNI
T43 sequence (Q9UHD2 whole entry): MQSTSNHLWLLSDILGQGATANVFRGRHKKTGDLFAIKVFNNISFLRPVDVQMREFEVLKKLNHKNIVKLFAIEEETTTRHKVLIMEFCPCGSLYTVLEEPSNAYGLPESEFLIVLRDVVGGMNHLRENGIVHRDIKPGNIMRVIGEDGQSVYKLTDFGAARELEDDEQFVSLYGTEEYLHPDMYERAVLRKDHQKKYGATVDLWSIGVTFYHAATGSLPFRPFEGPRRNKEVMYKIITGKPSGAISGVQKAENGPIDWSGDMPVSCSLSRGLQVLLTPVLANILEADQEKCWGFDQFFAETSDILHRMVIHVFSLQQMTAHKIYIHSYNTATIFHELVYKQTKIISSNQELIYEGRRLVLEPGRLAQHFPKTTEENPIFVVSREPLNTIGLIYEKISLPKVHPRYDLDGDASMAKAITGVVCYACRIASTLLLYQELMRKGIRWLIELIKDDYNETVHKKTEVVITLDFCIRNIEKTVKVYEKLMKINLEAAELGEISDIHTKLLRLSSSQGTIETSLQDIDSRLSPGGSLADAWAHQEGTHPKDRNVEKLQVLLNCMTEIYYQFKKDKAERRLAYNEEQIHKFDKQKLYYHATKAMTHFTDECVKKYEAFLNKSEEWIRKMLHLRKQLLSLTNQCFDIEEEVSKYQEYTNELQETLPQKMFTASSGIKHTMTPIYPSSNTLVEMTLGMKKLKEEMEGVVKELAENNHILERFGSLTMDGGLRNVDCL
T34 sequence (Q16539 whole entry): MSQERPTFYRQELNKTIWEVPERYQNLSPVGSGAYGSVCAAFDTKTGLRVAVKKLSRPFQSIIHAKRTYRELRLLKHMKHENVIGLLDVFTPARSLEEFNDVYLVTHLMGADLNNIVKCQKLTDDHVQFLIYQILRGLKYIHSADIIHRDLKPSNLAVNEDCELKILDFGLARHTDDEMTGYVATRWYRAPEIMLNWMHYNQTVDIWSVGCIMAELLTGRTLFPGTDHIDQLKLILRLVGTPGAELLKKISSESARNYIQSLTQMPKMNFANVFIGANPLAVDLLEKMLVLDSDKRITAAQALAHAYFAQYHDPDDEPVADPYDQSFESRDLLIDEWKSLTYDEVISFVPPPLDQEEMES
T18 sequence (Q96GD4 whole entry): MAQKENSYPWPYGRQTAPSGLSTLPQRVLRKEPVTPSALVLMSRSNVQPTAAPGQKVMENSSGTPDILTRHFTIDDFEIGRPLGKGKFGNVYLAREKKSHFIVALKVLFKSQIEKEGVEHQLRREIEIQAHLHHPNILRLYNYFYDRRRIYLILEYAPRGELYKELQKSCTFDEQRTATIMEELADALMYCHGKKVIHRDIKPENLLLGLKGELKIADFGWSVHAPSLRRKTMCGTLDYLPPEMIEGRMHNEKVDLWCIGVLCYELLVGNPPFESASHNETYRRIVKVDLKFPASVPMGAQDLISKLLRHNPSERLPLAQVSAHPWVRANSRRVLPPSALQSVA
T18 sequence (Q9NQS7 803-918 partner limits assumed): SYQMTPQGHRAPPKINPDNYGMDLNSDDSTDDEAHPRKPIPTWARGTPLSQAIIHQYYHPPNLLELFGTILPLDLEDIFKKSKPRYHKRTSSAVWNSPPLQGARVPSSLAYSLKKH
T24 sequence (P49840 whole entry): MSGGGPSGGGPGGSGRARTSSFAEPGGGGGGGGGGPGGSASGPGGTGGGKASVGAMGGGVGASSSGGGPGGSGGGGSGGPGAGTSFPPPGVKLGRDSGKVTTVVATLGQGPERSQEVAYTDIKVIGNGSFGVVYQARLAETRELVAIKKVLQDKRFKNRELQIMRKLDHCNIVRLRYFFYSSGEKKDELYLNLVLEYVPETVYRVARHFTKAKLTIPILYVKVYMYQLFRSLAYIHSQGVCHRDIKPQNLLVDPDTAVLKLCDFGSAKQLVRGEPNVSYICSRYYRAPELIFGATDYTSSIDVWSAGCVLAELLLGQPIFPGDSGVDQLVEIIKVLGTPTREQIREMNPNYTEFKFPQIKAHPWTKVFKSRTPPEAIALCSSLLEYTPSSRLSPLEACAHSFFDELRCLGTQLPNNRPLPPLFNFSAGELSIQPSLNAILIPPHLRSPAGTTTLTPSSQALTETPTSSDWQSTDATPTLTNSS
T23 sequence (P53355 whole entry): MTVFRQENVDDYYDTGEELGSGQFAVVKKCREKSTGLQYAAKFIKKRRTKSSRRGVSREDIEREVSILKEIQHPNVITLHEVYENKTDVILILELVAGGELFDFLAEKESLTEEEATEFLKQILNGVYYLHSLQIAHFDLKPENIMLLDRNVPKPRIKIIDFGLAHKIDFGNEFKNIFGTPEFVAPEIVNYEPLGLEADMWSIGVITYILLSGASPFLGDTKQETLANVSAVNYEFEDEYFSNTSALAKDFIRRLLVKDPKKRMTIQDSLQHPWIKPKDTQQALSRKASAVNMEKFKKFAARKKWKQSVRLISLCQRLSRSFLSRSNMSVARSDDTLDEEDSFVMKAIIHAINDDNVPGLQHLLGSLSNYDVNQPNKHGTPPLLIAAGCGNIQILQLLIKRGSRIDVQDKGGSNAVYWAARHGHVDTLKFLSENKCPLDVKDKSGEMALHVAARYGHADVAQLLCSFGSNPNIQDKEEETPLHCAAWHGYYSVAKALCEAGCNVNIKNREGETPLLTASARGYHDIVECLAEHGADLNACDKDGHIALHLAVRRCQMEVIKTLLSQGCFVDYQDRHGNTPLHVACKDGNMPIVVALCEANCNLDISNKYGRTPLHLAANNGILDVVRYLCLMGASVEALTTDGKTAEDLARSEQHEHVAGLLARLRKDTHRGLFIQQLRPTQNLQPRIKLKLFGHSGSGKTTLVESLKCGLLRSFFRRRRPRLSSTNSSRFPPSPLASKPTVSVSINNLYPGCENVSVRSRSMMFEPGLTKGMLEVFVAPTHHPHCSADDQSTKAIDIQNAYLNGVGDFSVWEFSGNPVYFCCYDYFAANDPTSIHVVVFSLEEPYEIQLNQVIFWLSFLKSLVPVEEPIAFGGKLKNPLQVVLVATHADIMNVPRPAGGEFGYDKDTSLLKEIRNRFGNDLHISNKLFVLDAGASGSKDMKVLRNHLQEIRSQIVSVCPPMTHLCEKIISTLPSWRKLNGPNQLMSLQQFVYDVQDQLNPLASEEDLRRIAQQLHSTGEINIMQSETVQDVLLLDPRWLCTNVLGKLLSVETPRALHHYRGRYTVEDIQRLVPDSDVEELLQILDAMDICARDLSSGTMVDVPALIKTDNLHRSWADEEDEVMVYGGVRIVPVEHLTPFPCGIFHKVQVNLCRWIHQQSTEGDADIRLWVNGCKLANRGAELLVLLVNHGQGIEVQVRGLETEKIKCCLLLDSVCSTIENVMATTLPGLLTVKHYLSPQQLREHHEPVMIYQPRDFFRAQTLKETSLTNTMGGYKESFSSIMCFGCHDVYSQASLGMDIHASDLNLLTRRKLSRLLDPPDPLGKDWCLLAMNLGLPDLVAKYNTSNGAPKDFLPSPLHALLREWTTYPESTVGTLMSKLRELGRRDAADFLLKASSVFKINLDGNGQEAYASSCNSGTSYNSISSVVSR
T12 sequence (Q14289 whole entry): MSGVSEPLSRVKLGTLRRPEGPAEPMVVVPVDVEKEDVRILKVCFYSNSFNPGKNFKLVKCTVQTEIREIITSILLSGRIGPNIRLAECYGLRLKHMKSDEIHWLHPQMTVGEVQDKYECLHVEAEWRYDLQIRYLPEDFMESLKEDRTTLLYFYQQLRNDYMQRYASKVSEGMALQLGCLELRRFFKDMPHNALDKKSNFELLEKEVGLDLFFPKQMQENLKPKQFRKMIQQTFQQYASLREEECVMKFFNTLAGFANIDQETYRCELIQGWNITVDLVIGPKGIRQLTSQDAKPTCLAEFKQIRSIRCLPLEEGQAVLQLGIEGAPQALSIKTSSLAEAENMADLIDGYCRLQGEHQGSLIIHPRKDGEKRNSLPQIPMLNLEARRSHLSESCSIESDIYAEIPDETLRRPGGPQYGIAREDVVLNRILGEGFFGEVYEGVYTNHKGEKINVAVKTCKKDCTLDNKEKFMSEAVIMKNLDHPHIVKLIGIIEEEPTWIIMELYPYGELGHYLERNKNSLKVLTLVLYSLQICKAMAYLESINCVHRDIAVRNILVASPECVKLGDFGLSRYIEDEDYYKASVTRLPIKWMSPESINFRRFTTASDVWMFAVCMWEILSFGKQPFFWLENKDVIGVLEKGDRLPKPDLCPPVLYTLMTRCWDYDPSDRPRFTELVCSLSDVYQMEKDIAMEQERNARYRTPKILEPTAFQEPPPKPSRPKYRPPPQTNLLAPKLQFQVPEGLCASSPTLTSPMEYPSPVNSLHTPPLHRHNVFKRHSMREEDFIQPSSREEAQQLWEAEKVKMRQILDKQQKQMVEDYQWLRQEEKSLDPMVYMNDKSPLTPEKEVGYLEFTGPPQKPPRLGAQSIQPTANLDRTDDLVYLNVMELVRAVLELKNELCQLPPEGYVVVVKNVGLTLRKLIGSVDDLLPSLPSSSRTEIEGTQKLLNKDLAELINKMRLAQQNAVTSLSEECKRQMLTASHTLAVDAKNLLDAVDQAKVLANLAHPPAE

## COc1ccc(/C=C2\SC(=S)NC2=O)cc1C#C[Si](C)(C)C [FINDY]
[1]
  inhibition at 10 µM: 15.2%
[2]
  inhibition at 10 µM: 57.9%
[3]
  inhibition at 10 µM: 6.7%
[4]
  inhibition at 10 µM: 7.3%
[5]
  inhibition at 10 µM: 1.6%
[6]
  inhibition at 10 µM: -0.5%
[7]
  inhibition at 10 µM: 6.6%
[8]
  inhibition at 10 µM: 58.4%
[9]
  inhibition at 10 µM: -0.1%
[10]
  inhibition at 10 µM: 4.6%
[11]
  inhibition at 10 µM: 4%
[12]
  inhibition at 10 µM: 3.6%
[13]
  inhibition at 10 µM: 32.9%
[14]
  inhibition at 10 µM: 7.3%
[15]
  inhibition at 10 µM: 23.5%
[16]
  inhibition at 10 µM: 18.9%
[17]
  inhibition at 10 µM: 58.7%
[18]
  inhibition at 10 µM: 35.7%
[19]
  inhibition at 10 µM: -4%
[20]
  inhibition at 10 µM: 6.3%
[21]
  inhibition at 10 µM: 19.9%
[22]
  inhibition at 10 µM: 15.9%
[23]
  inhibition at 10 µM: 14.8%
[24]
  inhibition at 10 µM: 43.4%
[25]
  inhibition at 10 µM: 23.5%
[26]
  inhibition at 10 µM: 14.4%
[27]
  inhibition at 10 µM: 3.3%
[28]
  inhibition at 10 µM: 46.7%
[29]
  inhibition at 10 µM: 5%
[30]
  inhibition at 10 µM: 48.7%
[31]
  inhibition at 10 µM: 41%
[32]
  inhibition at 10 µM: 3.8%
[33]
  inhibition at 10 µM: -5.1%
[34]
  inhibition at 10 µM: 10.6%
[35]
  inhibition at 10 µM: 5%
[36]
  inhibition at 10 µM: 11.9%
[37]
  inhibition at 10 µM: 13%
[38]
  inhibition at 10 µM: 2.6%
[39]
  inhibition at 10 µM: 83.1%
[40]
  inhibition at 10 µM: 20.3%
[41]
  inhibition at 10 µM: 11.8%
[42]
  inhibition at 10 µM: 39.9%
[43]
  inhibition at 10 µM: 4%
[44]
  inhibition at 10 µM: 3.3%
[45]
  inhibition at 10 µM: 39.9%
